From PMC12356143 (RSC Medicinal Chemistry, 2025)
“And” between values parts separate entries of the source, which are not always exact repeats. Equal values may be shown once.

Key:
[1] = target: SARS-CoV-2 M^pro L50F/E166A/L167F (Severe acute respiratory syndrome coronavirus 2, UniProt P0DTD1, E3429A/L3313F/L3430F); type: biochemical
M^pro L50F/E166A/L167F = M^pro L50F/E166A/L167F (Severe acute respiratory syndrome coronavirus 2, UniProt P0DTD1, E3429A/L3313F/L3430F); conditions: for K M / k cat: pH 7.6

| Compound | inhibition of L50F/E166A/L167F, result in words [1] | Km (M^pro L50F/E166A/L167F) [µM] | K M (M^pro L50F/E166A/L167F) [µM] | k cat (M^pro L50F/E166A/L167F) | other results |
| --- | --- | --- | --- | --- | --- |
| COc1cccc2[nH]c(C(=O)N3C[C@H](C(F)(F)F)C[C@H]3C(=O)N[C@H](C#N)C[C@@H]3CCNC3=O)cc12 [compound 1] | inactive |  |  |  |  |
| COc1cccc2[nH]c(C(=O)NC(CC3CC3)C(=O)NC(CC3CCNC3=O)C(O)S(=O)(=O)O)cc12 (centres unmarked) [compound 4] |  |  |  |  | improvement in inhibition compared to nirmatrelvir [1]: approximately 30 fold |
| O=C(NC(Cc1ccccc1)C(=O)NC(CC1CCNC1=O)C(O)S(=O)(=O)O)OCc1cccc(F)c1 (centres unmarked) [compound 3] | inactive |  |  |  |  |
| 2-Abz-SVTLQ↓SGY^(NO2)R-OH |  | 320 | 320 | 0.26 s⁻¹ and 0.26 ± 0.05 s⁻¹ | lower catalytic efficiency of the M^pro triple mutant compared to the WT M^pro (M^pro L50F/E166A/L167F): ~35 times |
| 2-Abz-KTSAVLQ↓SGY^(NO2)RKME-OH |  | 250 | 250 | 0.19 ± 0.04 s⁻¹ |  |
| CC(C)C[C@H](NC(=O)OCc1cccc(F)c1)C(=O)N[C@@H](Cc1cscn1)C(O)S(=O)(=O)O (some centres unmarked) [compound 2] | does not significantly alter binding potency |  |  |  |  |
